Experimental data: US5281608A, “Substituted tetrahydropyrido[3',4':4,5]-pyrrolo[3,2-c]quinolines” (American Home Products Corporation, priority 1992, dated 1994)
≈ marks a conversion by molar mass, not a printed value.

Assays:
[1] = tested on: rat limb bones (PTH-induced bone resorption); assay: Bone resorption assay (45Ca release from rat limb bones), PTH-induced; format: cell-based, rat (Sprague-Dawley CD); details: 48 h; for IC50: Rattus norvegicus, read-out: Inhibition of Bone Resorption, PTH-Induced (IC50)
Procedure: (§1) The ability of the compounds of the invention to modify the process of bone resorption is evaluated in the bone resorption assay measuring ^45 Ca release from rat limb bones.
(§2) Limb bone preparation. Timed pregnant Sprague-Dawley CD® rats (Charles River) are administered 100 μCi ^45 CaCl2 (NEN calcium -45 NEZ-013) in 100 μl of 0.9% saline, subcutaneously, on day 18 of gestation. The rats are sacrificed the following day by CO2 asphyxiation. The fetuses are removed and the right forelimbs excised and placed in a Petri dish containing ice cold explant medium consisting of modified BGJb -Fitton Jackson media (custom formulation, Gibco No. 78-0088) adjusted to pH 7.3 to which 10 mM TES is added. The modified BGJb media is obtained without salts, glucose or bicarbonate and is supplemented before use with 0.1 mM MgCl2, 1.25 mM CaCl2, 5.3 mM KCl, 0.7 mM MgSO4, 130 mM NaCl, 1.0 mM NaH2 PO4, 1 g/L glucose, 50 mg/L Na acetate and 100 U/ml penicillin G. The medium is sterilized by passage through a 0.2 μ M filter (Nalge). Under a dissecting microscope, the bones are gently cleaned of adherent tissue and the cartilaginous ends removed. Incubation and drug treatment. The midshafts are placed, individually, on 3×3 mm squares of filter paper (Gelman GN-6 metricel filters; […] pore size) which rest on stainless steel screens in wells of 24-well culture plates containing 0.5 mL of preincubation medium. The preincubation medium is brought to 37° C. prior to transfer of bones. The preincubation medium consists of the modified BGJb medium (with salts and glucose as above), pH 7.3, containing 29 mM NaHCO3. After incubation for 18-24 hours at 37° C. in 5% CO2, the bones are transferred on their screen/filter paper supports to new plates containing, in a total volume of 0.5 mL/well at 37° C., the test compound diluted in preincubation medium supplemented with 15% heat inactivated horse serum (Gibco No. 230-6050), pH 7.3, with a bone resorption stimulating agent (e.g. parathyroid hormone [PTH] or interleukin-1 [IL-1]). For compounds that require nonaqueous solvents, dilutions are made from the appropriate stock solution with medium. In these instances, basal and bone resorption stimulated controls exposed to an equivalent concentration of the vehicle are included. An additional group of bones that have been subjected to boiling for 1 hour (kill control) are used to establish background, non cell mediated, exchange of ^45 Ca. The right ulna and radius from each fetus are used. Both bones are subjected to the same treatment and each treatment group consists of bones from 4 or more fetuses. Treatments are randomly assigned using a preclinical statistics program (PS-ALLOC). After a 48 hour incubation at 37° C. in 5% CO2, the bones are removed from the medium and extracted in 0.5 mL of 0.1N HCl for 1 or more days. Duplicate 150 μL aliquots of the incubation medium and the bone extract are analyzed for ^45 Ca radioactivity in 5 mL of liquid scintillation cocktail.
(§3) The percentage of bone ^45 Ca released into the medium is determined as follows: [formula] Results are normally expressed as the ratio of the percent ^45 Ca release of the experimental group versus the appropriate vehicle control, or as an IC50 value.

[2] = tested on: rat limb bones (IL-1 induced bone resorption); assay: Bone resorption assay (45Ca release from rat limb bones), IL-1 induced; format: cell-based, rat (Sprague-Dawley CD); details: 48 h; for IC50: Rattus norvegicus, read-out: Inhibition of Bone Resorption, IL-1 Induced (IC50)
Procedure: as §1, §2, §3

Compound	Inhibition of Bone Resorption, PTH-Induced (activity in words) [1]	IC50 [1] [µg/mL]	Inhibition of Bone Resorption, IL-1 Induced (activity in words) [2]	IC50 [2] [µg/mL]
O=C(NC(=O)N1CCc2[nH]c3c(cnc4cc(Cl)ccc43)c2C1)c1ccccc1 [Example 13, N-Benzoyl-3-chloro-7,9,10,11-tetrahydro-8H-pyrido-[3',4':4,5]pyrrolo[3,2-c]quinoline-8-carboxamide]	Active	0.944 (≈ 2.33 µM)	Active	1.71 (≈ 4.22 µM)
S=C(Nc1ccccc1)N1CCc2[nH]c3c(cnc4cc(Cl)ccc43)c2C1 [Example 14, 3-Chloro-7,9,10,11-tetrahydro-N-phenyl-8H-pyrido-[3',4':4,5]pyrrolo[3,2-c]quinoline-8-carbothioamide]	Active	1.2 (≈ 3.05 µM)	Active	1.21 (≈ 3.08 µM)
CCOC(=O)c1ccc(NC(=O)N2CCc3[nH]c4c(cnc5cc(Cl)ccc54)c3C2)cc1 [Example 15, 4-[[(3-Chloro-7,9,10,11-tetrahydro-8H-pyrido[3',4':4,5]pyrrolo-[3,2-c]quinoline-8-yl)carbonyl]amino]benzoic acid ethyl ester]	Active	5.5 (≈ 12.3 µM)		
O=C(NCc1ccccc1)N1CCc2[nH]c3c(cnc4cc(Cl)ccc43)c2C1 [Example 16, 3-Chloro-7,9,10,11-tetrahydro-N-(phenylmethyl)-8H-pyrido-[3',4':4,5]pyrrolo[3,2-c]quinoline-8-carboxamide]	Active	2.52 (≈ 6.45 µM)	Active	6.22 (≈ 15.9 µM)
O=C(NC(=S)N1CCc2[nH]c3c(cnc4cc(Cl)ccc43)c2C1)c1ccccc1 [Example 17]	Active	1.16 (≈ 2.76 µM)	Active	1.65 (≈ 3.92 µM)
S=C(NCc1ccccc1)N1CCc2[nH]c3c(cnc4cc(Cl)ccc43)c2C1 [Example 18, 3-Chloro-7,9,10,11-tetrahydro-N-(phenylmethyl)-8H-pyrido-[3',4':4,5]pyrrolo[3,2-c]quinoline-8-carbothioamide]			Active	2.39 (≈ 5.87 µM)
COc1cccc(NC(=O)N2CCc3[nH]c4c(cnc5cc(Cl)ccc54)c3C2)c1 [Example 20, 3-Chloro-7,9,10,11-tetrahydro-N-(3-methoxyphenyl)-8H-pyrido-[3',4':4,5]pyrrolo[3,2-c]quinoline-8-carboxamide]	Active	0.059 (≈ 0.145 µM)	Active	0.0088 (≈ 0.0216 µM)
COc1ccc(S(=O)(=O)N2CCc3[nH]c4c(cnc5cc(Cl)ccc54)c3C2)cc1 [Example 21, 3-Chloro-8,9,10,11-tetrahydro-8-[(4-methoxyphenyl)sulfonyl]-7H-pyrido[3',4':4,5]pyrrolo[3,2-c]quinoline]			Active	8.48 (≈ 19.8 µM)
